Test results: ChEMBL document CHEMBL6177991, “Discovery of P11-2: A Potent First-in-Class MNK1-Targeting PROTAC Degrader for the Treatment of Cancer” (J Med Chem, 2025)
Activity calls are given as the source filed them. The rule behind the calls is not given here.

Key:
[1] = Half life in male Sprague-Dawley rat at 5 mg/kg, ip measured up to 24 hrs by LC-MS analysis; format: ADME, organism-based; conditions: in vivo
[2] = Toxicity in male ICR mouse assessed as change in serum TBA level at 100 mg/kg, ip measured after 14 days; format: organism-based; conditions: in vivo, 336 h, time 14 day
MV4-11 = experiment: Induction of MNK2 degradation in human MV4-11 cells at 10 to 1000 nM incubated for 24 hrs by immunoblot analysis; format: cell-based; conditions: dose 10-1000 nM

With `O=C1CCC(N2Cc3c(NC(=O)CCCCCC(=O)N4CCC(C(=O)Nc5ncc(-c6ccccc6)s5)CC4)cccc3C2=O)C(=O)N1` (stereo not drawn) the half-life [1] was 5.2 h, the Activity [2] was “Non-toxic” and the Activity (MV4-11) was “inactive”.
